The source of these data is patent US20240368104A1, “Novel Dialkoxynaphtho[2,3-C]Furan-1(3H)-One Derivatives and Pharmaceutical Composition For Preventing or Treating Respiratory Disease or SARS-COV-2 Infection Disease, Comprising Same” (priority 2021, published 2024).

Each structure is given as a SMILES string. pIC50: −log10 of the molar value. Where a name gives a salt, the structure may show the parent alone. Read-outs that look alike come from different tables or passages of the source.

One series relates to SARS-COV-2. In words: microbe, parasite or virus in culture. In kind it is cell-based. Also on record: SI (Selectivity Index, CC50/IC50): unit not given here. As to conditions: for SI (Selectivity Index, CC50/IC50): SARS-COV-2, values >50 assumed to be 50; for pIC50: read-out: SARS-COV-2 inhibition (IC50).
The next series in a line: in vitro. The conditions noted are these: African green monkey.
Setting [1] is: Severe acute respiratory syndrome coronavirus 2, Vero cells, 24 hours infection.
Setting [2] is: Severe acute respiratory syndrome coronavirus 2, Vero, 24 h.

As for `CCN(c1ccc(-c2c3c(cc4cc(OC)c(OC)cc24)COC3=O)cn1)C1Cc2ccccc2C1` [Example 195, 9-(6-((2,3-dihydro-1H-indan-2-yl)(ethyl)amino)pyridin-3-yl)-6,7-dimethoxynaphtho[2,3-c]furan-1(3H)-one], in the series on SARS-COV-2, the “SI (Selectivity Index, CC50/IC50)” value was found to be 9.50. For the same compound, in the series on SARS-COV-2 (setting [1]), the negative logarithm of the IC50 (pIC50) (in general, −log10 of the IC50, conventionally taken in molar units) is 5.28. In addition, the CC50 in “in vitro” was > 50 µM.

As for `COc1cc2cc3c(c(-c4cnc(N5CCCCC5CO)nc4)c2cc1OC)C(=O)OC3` (stereo not drawn) [Example 104, 9-(2-(2-(hydroxymethyl)piperidin-1-yl)pyrimidin-5-yl)-6,7-dimethoxynaphtho[2,3-c]furan-1(3H)-one hydrochloride], the “SI (Selectivity Index, CC50/IC50)” value in the series on SARS-COV-2 is on record as 1.0. Besides, the pIC50 in the series on SARS-COV-2 (setting [2]) was < 4.30. For the same compound, in the series “in vitro”, the CC50 is > 50 µM.

Take `COc1cc2cc3c(c(-c4cc5c(cc4OC(=O)c4cccnc4)OCO5)c2cc1OC)C(=O)OC3` [Example 272, 6-(6,7-dimethoxy-3-oxo-1,3-dihydronaphtho[2,3-c]furan-4-yl)benzo[d][1,3]dioxol-5-yl nicotinate]: in the series on SARS-COV-2, the “SI (Selectivity Index, CC50/IC50)” value came to 27.23. Besides, the pIC50 in the series with SARS-COV-2 (setting [1]) was 5.74. Also, the CC50 in the series “in vitro” was > 50 µM.

Consider `COc1cc2cc3c(c(-c4ccc(N5CCn6c(nnc6C(F)(F)F)C5)nc4)c2cc1OC)C(=O)OC3` [Example 240, 6,7-dimethoxy-9-(6-(3-(trifluoromethyl)-5,6-dihydro-[1,2,4]triazolo[4,3-a]pyrazin-7 (8H)-yl)pyridin-3-yl)naphtho[2,3-c]furan-1(3H)-one], for which the “SI (Selectivity Index, CC50/IC50)” value with SARS-COV-2 was 1.00. Also, the pIC50 with SARS-COV-2 (setting [1]) was < 4.30. In “in vitro”, the CC50 was > 50 µM.

`COc1cc2c(OC)c3c(c(-c4ccc(N(C)c5cccc(C(F)(F)F)c5)nc4)c2cc1OC)COC3=O.Cl` [Example 263, 6,7,9-trimethoxy-4-(6-(methyl(3-(trifluoromethyl)phenyl)amino)pyridin-3-yl)naphtho[2,3-c]furan-1(3H)-one]: the “SI (Selectivity Index, CC50/IC50)” value in the series on SARS-COV-2 turned out to be 1.00. Also, the negative-log IC50 (pIC50) with SARS-COV-2 (setting [2]) was < 4.30. Besides, the CC50 in the series “in vitro” is > 50 µM.

Take `COc1cc2cc3c(c(N4CCc5sccc5C4)c2cc1OC)C(=O)OC3` [Example 3, 9-(6,7-dihydrothieno[3,2-c]pyridin-5 (4H)-yl)-6,7-dimethoxynaphtho[2,3-c]furan-1(3H)-one]: the “SI (Selectivity Index, CC50/IC50)” value in the series with SARS-COV-2 is 8.48. Moreover, the pIC50 with SARS-COV-2 (setting [1]) was 5.23. Further, the CC50 in “in vitro” was > 50 µM.

Take `COc1cc2cc3c(c(-c4ccc5nccc(O)c5c4)c2cc1OC)C(=O)OC3` [Example 117, 9-(4-hydroxyquinolin-6-yl)-6,7-dimethoxynaphtho[2,3-c]furan-1(3H)-one]: in the series with SARS-COV-2, the “SI (Selectivity Index, CC50/IC50)” value was 1.0. For the same compound, the pIC50 with SARS-COV-2 (setting [1]) is < 4.30. For the same compound, the CC50 in the series “in vitro” is > 50 µM.

Take `COc1cc2cc3c(c(-c4cnc(N(C)[C@H]5CCc6c(cccc6OC)C5)nc4)c2cc1OC)C(=O)OC3.Cl` [Example 96, (S)-6,7-dimethoxy-9-(2-((5-methoxy-1,2,3,4-tetrahydronaphthalen-2-yl)(methyl)amino)pyrimidin-5-yl)naphtho[2,3-c]furan-1(3H)-one hydrochloride]: in the series on SARS-COV-2, the “SI (Selectivity Index, CC50/IC50)” value is 27.11. Further, the pIC50 with SARS-COV-2 (setting [2]) is 5.74. Moreover, in the series “in vitro”, the CC50 is > 50 µM.

On to `COc1cc2cc3c(c(-c4cc(C)nc5c(F)cccc45)c2cc1OC)C(=O)OC3` [Example 134, 9-(8-fluoro-2-methylquinolin-4-yl)-6,7-dimethoxynaphtho[2,3-c]furan-1(3H)-one], for which the “SI (Selectivity Index, CC50/IC50)” value with SARS-COV-2 was 1.0. Besides, the pIC50 in the series with SARS-COV-2 (setting [1]) is < 4.30. Further, the CC50 in “in vitro” is > 50 µM.

`COc1cc2cc3c(c(-c4ccc5ncc(C)cc5c4)c2cc1OC)C(=O)OC3` [Example 120, 6,7-dimethoxy-9-(3-methylquinolin-6-yl)naphtho[2,3-c]furan-1(3H)-one]: the “SI (Selectivity Index, CC50/IC50)” value in the series on SARS-COV-2 worked out at 12.07. The pIC50 in the series with SARS-COV-2 (setting [1]) was 5.38. Also, the CC50 in the series “in vitro” is > 50 µM.

Regarding `COc1cc2cc3c(c(-c4ccc(N5CCc6sccc6C5)nc4)c2cc1OC)C(=O)OC3` [Example 156, 9-(6-(6,7-dihydrothien[3,2-c]pyridin-5 (4H)-yl)pyridin-3-yl)-6,7-dimethoxynaphtho[2,3-c]furan-1(3H)-one], the “SI (Selectivity Index, CC50/IC50)” value in the series on SARS-COV-2 is listed as 48.93. Moreover, the negative logarithm of the IC50 (pIC50) with SARS-COV-2 (setting [1]) is 5.99. Further, in the series “in vitro”, the CC50 is > 50 µM.

For the compound `COc1cc2cc(CO)c(C(=O)[O-])c(-c3cc4c(cc3O)OCO4)c2cc1OC.[Na+]` [Example 212, 1-(6-hydroxybenzo[d][1,3]dioxol-5-yl)-3-(hydroxymethyl)-6,7-dimethoxy-2-naphthoate sodium (I)], the “SI (Selectivity Index, CC50/IC50)” value in the series on SARS-COV-2 is given as 2.81. In addition, the negative logarithm of the IC50 (pIC50) in the series with SARS-COV-2 (setting [1]) is 4.75. Further, the CC50 in the series “in vitro” is > 50 µM.

Take `CCN(CCc1cn(CC)c2ccccc12)c1ccc(-c2c3c(cc4cc(OC)c(OC)cc24)COC3=O)cn1` [Example 197, 9-(6-(ethyl(2-(1-ethyl-1H-indol-3-yl)ethyl)amino)pyridin-3-yl)-6,7-dimethoxynaphtho[2,3-c]furan-1(3H)-one]: in the series on SARS-COV-2, the “SI (Selectivity Index, CC50/IC50)” value is 2.88. In the series on SARS-COV-2 (setting [1]), the negative-log IC50 (pIC50) was 4.76. For the same compound, the CC50 in “in vitro” was > 50 µM.

As for `COc1cc2cc3c(c(-c4ccc(N5CCC(O)CC5)nc4)c2cc1OC)C(=O)OC3` [Example 165, 9-(6-(4-hydroxypiperidin-1-yl)pyridin-3-yl)-6,7-dimethoxynaphtho[2,3-c]furan-1(3H)-one], the “SI (Selectivity Index, CC50/IC50)” value with SARS-COV-2 is reported as 11.69. Moreover, the pIC50 in the series on SARS-COV-2 (setting [1]) was 5.54. Further, the CC50 in “in vitro” is 34 µM.

As for `COc1cc2cc3c(c(-c4ccc5c(CN6CCOCC6)c[nH]c5c4)c2cc1OC)C(=O)OC3.Cl` [Example 203, 6,7-dimethoxy-9-(3-(morpholinomethyl)-1H-indol-6-yl)naphtho[2,3-c]furan-1(3H)-one], the “SI (Selectivity Index, CC50/IC50)” value in the series on SARS-COV-2 amounted to 8.39. Moreover, the pIC50 with SARS-COV-2 (setting [2]) is 5.45. In the series “in vitro”, the CC50 was found to be 29.7 µM.

Regarding `COc1ccc(CN(C)c2ccc(-c3c4c(cc5cc(OC)c(OC)cc35)COC4=O)cn2)c(OC)c1.Cl` [Example 232, 9-(6-((2,4-dimethoxybenzyl)(methyl)amino)pyridin-3-yl)-6,7-dimethoxynaphtho[2,3-c]furan-1(3H)-one], the “SI (Selectivity Index, CC50/IC50)” value in the series with SARS-COV-2 is recorded as 15.36. In the series on SARS-COV-2 (setting [2]), the pIC50 was 5.49. For the same compound, the CC50 in the series “in vitro” was > 50 µM.

On to `COc1cc2cc3c(c(-c4cnc(N(C)c5cccc(C(F)(F)F)c5)nc4)c2cc1OC)C(=O)OC3` [Example 216, 6,7-dimethoxy-9-(2-(methyl(3-(trifluoromethyl)phenyl)amino)pyrimidin-5-yl)naphtho[2,3-c]furan-1(3H)-one], for which the “SI (Selectivity Index, CC50/IC50)” value in the series on SARS-COV-2 is recorded as 52.13. For the same compound, the negative logarithm of the IC50 (pIC50) with SARS-COV-2 (setting [1]) is 6.02. In “in vitro”, the CC50 is > 50 µM.

Regarding `COc1cc2cc3c(c(-c4cnc(N(C)C)cn4)c2cc1OC)C(=O)OC3` [Example 31, 9-(5-(dimethylamino)pyrazin-2-yl)-6,7-dimethoxynaphtho[2,3-c]furan-1(3H)-one], the “SI (Selectivity Index, CC50/IC50)” value in the series with SARS-COV-2 was 11.86. In addition, the pIC50 in the series with SARS-COV-2 (setting [1]) was 5.37. The CC50 in “in vitro” is > 50 µM.

As to `COc1cc2cc3c(c(-c4cncc(OC(C)C)c4)c2cc1OC)C(=O)OC3` [Example 200, 9-(5-isopropoxypyridin-3-yl)-6,7-dimethoxynaphtho[2,3-c]furan-1(3H)-one], in the series on SARS-COV-2, the “SI (Selectivity Index, CC50/IC50)” value is recorded as 1.77. In addition, the pIC50 with SARS-COV-2 (setting [1]) is 4.55. The CC50 in “in vitro” is > 50 µM.

On to `COc1cc2cc3c(c(-c4cnc(NC5CCCC5)nc4)c2cc1OC)C(=O)OC3.Cl` [Example 91, 9-(2-(cyclopentylamino)pyrimidin-5-yl)-6,7-dimethoxynaphtho[2,3-c]furan-1(3H)-one hydrochloride], for which the “SI (Selectivity Index, CC50/IC50)” value in the series with SARS-COV-2 amounted to 5.15. The pIC50 with SARS-COV-2 (setting [2]) was 5.01. Besides, the CC50 in the series “in vitro” was > 50 µM.

For the compound `COc1cc2cc3c(c(-c4cnc(/N=C\CN(C)C)cn4)c2cc1OC)C(=O)OC3` [Example 29, (Z)-9-(5-((2-(dimethylamino)ethyliden)amino)pyrazin-2-yl)-6,7-dimethoxynaphtho[2,3-c]furan-1(3H)-one], in the series on SARS-COV-2, the “SI (Selectivity Index, CC50/IC50)” value is reported as 1.00. For the same compound, the pIC50 in the series with SARS-COV-2 (setting [1]) is < 4.30. For the same compound, the CC50 in the series “in vitro” was > 50 µM.

Regarding `COc1cc2cc3c(c(-c4ccc(N[C@H]5CCc6c(cccc6OC)C5)nc4)c2cc1OC)C(=O)OC3.Cl` [Example 172, (S)-6,7-dimethoxy-9-(6-((5-methoxy-1,2,3,4-tetrahydronaphthalen-2-yl)amino)pyridin-3-yl)naphtho[2,3-c]furan-1(3H)-one], the “SI (Selectivity Index, CC50/IC50)” value with SARS-COV-2 is on record as 1.0. Moreover, the pIC50 with SARS-COV-2 (setting [2]) is < 4.30. In the series “in vitro”, the CC50 was > 50 µM.

In the case of `CCN(c1ccc(-c2c3c(cc4cc(OC)c(OC)cc24)COC3=O)cn1)c1ncn(CC)n1` [Example 207, 9-(6-(ethyl(1-ethyl-1H-1,2,4-triazol-3-yl)amino)pyridin-3-yl)-6,7-dimethoxynaphtho[2,3-c]furan-1(3H)-one], the “SI (Selectivity Index, CC50/IC50)” value in the series on SARS-COV-2 was determined as 7.57. The negative logarithm of the IC50 (pIC50) with SARS-COV-2 (setting [1]) was 5.18. Also, the CC50 in “in vitro” was > 50 µM.

For `CCN(c1ncc(-c2c3c(cc4cc(OC)c(OC)cc24)COC3=O)cn1)C(C)C.Cl` [Example 75, 9-(2-(ethyl(isopropyl)amino)pyrimidin-5-yl)-6,7-dimethoxynaphtho[2,3-c]furan-1(3H)-one hydrochloride], in the series with SARS-COV-2, the “SI (Selectivity Index, CC50/IC50)” value was found to be 60.56. The pIC50 in the series with SARS-COV-2 (setting [2]) was 6.08. In addition, the CC50 in “in vitro” was > 50 µM.

Take `COc1cc2cc3c(c(-c4ccc(N(C)C)c([N+](=O)[O-])c4)c2cc1OC)C(=O)OC3.Cl` [Example 217, 9-(4-(dimethylamino)-3-nitrophenyl)-6,7-dimethoxynaphtho[2,3-c]furan-1(3H)-one]: the “SI (Selectivity Index, CC50/IC50)” value in the series on SARS-COV-2 is listed as 10.06. The pIC50 with SARS-COV-2 (setting [2]) is 5.30. Moreover, the CC50 in the series “in vitro” was > 50 µM.

As for `COCCN(C)c1ccc(-c2c3c(cc4cc(OC)c(OC)cc24)COC3=O)cn1.Cl` [Example 168, 6,7-dimethoxy-9-(6-((2-methoxyethyl)(methyl)amino)pyridin-3-yl)naphtho[2,3-c]furan-1(3H)-one hydrochloride], the “SI (Selectivity Index, CC50/IC50)” value in the series with SARS-COV-2 is on record as 42.46. In the series with SARS-COV-2 (setting [2]), the negative logarithm of the IC50 (pIC50) is 5.93. The CC50 in the series “in vitro” is > 50 µM.
